In ChEMBL document CHEMBL1131550, “Conformationally constrained inhibitors of caspase-1 (interleukin-1 beta converting enzyme) and of the human CED-3 homologue caspase-3 (CPP32, apopain)” (Bioorg Med Chem Lett, 1998):

What was measured:
Caspase-1 = biological target: T1, Caspase-1 (Mus musculus, UniProt P29452); test: Inhibitory activity against Caspase-1 using Ac-TyrValAlaAsp-amc as substrate
T1 sequence (P29452 whole entry): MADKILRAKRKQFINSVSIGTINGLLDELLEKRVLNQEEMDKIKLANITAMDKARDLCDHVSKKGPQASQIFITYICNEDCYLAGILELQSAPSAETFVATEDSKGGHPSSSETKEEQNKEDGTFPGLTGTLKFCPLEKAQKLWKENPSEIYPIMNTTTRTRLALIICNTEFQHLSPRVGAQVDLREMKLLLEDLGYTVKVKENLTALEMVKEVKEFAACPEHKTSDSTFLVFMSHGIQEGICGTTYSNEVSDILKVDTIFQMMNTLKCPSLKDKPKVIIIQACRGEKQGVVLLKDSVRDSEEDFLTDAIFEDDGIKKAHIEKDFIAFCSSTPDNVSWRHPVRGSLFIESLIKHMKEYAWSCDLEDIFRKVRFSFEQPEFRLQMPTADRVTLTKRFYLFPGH

Caspase-3 = biological target: T2, Caspase-3 (Homo sapiens, UniProt P42574); test: Inhibitory activity against human Caspase-3 using Ac-AspGluValAsp as substrate
T2 sequence (P42574 whole entry): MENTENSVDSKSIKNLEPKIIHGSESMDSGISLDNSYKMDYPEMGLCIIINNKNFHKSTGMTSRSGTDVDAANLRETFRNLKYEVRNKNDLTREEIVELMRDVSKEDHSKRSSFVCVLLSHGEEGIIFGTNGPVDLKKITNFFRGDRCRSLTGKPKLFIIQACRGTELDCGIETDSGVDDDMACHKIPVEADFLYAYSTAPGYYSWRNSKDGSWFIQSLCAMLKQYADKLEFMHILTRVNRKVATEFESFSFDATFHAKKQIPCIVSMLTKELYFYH

Row | Compound | IC50 (Caspase-1) | IC50 (Caspase-3)
1 | CC(C)[C@H](NC(=O)OCc1ccccc1)C(=O)N[C@@H](C)C(=O)N[C@H]1CC(=O)OC1O (stereo partly drawn) | 64 nM | –
2 | CC(C)[C@H](NC(=O)OCc1ccccc1)C(=O)N1CCC[C@H]1C(=O)N[C@H]1CC(=O)OC1O (stereo partly drawn) | 87 nM | –
3 | CC(=O)N[C@@H](CC(=O)O)C(=O)N[C@H](C(=O)N[C@@H](C)C(=O)N[C@H]1CC(=O)OC1O)C(C)C (stereo partly drawn) | 523 nM | –
4 | CC(=O)N[C@@H](CC(=O)O)C(=O)N[C@@H](CCC(=O)O)C(=O)N[C@H](C(=O)N[C@H]1CC(=O)OC1O)C(C)C (stereo partly drawn) | 71 nM | 1.2 nM
5 | CC(C)[C@H](NC(=O)OCc1ccccc1)C(=O)N1CCCC[C@H]1C(=O)N[C@H]1CC(=O)OC1O (stereo partly drawn) | 95 nM | –
6 | CC(=O)N[C@@H](Cc1ccc(O)cc1)C(=O)N[C@H](C(=O)N[C@@H](C)C(=O)N[C@H]1CC(=O)OC1O)C(C)C (stereo partly drawn) | 4.6 nM | –

Further lines, results first:

Row | IC50 (Caspase-1) | IC50 (Caspase-3) | Compound
7 | 36 nM | > 10000 nM | O=C1C[C@H](NC(=O)[C@@H]2CCC[C@@H]3CCC[C@H](NC(=O)OCc4ccccc4)C(=O)N32)C(O)O1 (stereo partly drawn)
8 | 37000 nM | > 100000 nM | O=C(CN1CCC[C@H](NC(=O)OCc2ccccc2)C1=O)N[C@H]1CC(=O)OC1O (stereo partly drawn)
9 | 10400 nM | 18 nM | CC(=O)N[C@@H](CC(=O)O)C(=O)N[C@H]1CCC[C@H]2SC[C@@H](C(=O)N[C@H]3CC(=O)OC3O)N2C1=O (stereo partly drawn)
10 | 3700 nM | > 100000 nM | C[C@@H](C(=O)N[C@H]1CC(=O)OC1O)N1CC[C@H](NC(=O)OCc2ccccc2)C1=O (stereo partly drawn)
11 | 1680 nM | – | O=C(CN1CCCC[C@H](NC(=O)OCc2ccccc2)C1=O)N[C@H]1CC(=O)OC1O (stereo partly drawn)
12 | 186 nM | > 10000 nM | C[C@@H](C(=O)N[C@H]1CC(=O)OC1O)N1CCCC[C@H](NC(=O)OCc2ccccc2)C1=O (stereo partly drawn)
13 | > 10000 nM | > 10000 nM | O=C(CN1CC[C@H](NC(=O)OCc2ccccc2)C1=O)N[C@H]1CC(=O)OC1O (stereo partly drawn)
14 | 4800 nM | – | O=C1C[C@H](NC(=O)[C@@H]2CS[C@H]3CC[C@H](NC(=O)OCc4ccccc4)C(=O)N32)C(O)O1 (stereo partly drawn)
15 | 159 nM | > 10000 nM | O=C1C[C@H](NC(=O)[C@@H]2CS[C@@H]3CCC[C@H](NC(=O)OCc4ccccc4)C(=O)N32)C(O)O1 (stereo partly drawn)
